Assay results taken from patent US7465453B2, “Polypeptide fragments of CKLF1” (Peking University, priority 2004, dated 2008).

Legend:
CCR6 = molecular target: T1, CCR6 (Homo sapiens, UniProt P51684); assay: Internalization of CCR6-EGFP in transiently transfected HEK293 cells; assay type: cell-based; conditions: HEK293 cells transfected with pCCR6-EGFP; 37° C., 2 hours
T1 construct: The cDNA fragment covering the open reading frame for CCR6 chemokine receptor was cloned into pEGFP-N1 vector (CLONTECH); expressed in transfected cells; host or cells: HEK293 (transient)
T1 sequence (P51684 1-374): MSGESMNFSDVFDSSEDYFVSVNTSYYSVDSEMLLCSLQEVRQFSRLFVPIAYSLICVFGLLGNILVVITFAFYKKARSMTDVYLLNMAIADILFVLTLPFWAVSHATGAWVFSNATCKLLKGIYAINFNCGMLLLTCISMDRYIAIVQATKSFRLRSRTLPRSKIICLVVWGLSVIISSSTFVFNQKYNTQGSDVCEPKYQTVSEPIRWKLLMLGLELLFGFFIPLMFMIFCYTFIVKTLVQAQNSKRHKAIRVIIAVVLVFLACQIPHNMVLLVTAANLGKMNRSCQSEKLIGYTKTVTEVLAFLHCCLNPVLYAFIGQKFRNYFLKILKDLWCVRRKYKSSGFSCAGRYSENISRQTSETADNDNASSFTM
Procedure: (§1) The cDNA fragment covering the open reading frame for CCR6 chemokine receptor was cloned into pEGFP-N1 vector (CLONTECH). pCCR6-EGFP transiently expressing HEK293 cells were cultured in glass-bottom dishes in RPMI 1640 with 10% FBS. After 16-24 hours of serum starvation, cells were treated with CKLF1 C-terminal peptides or MIP3α at 37° C. for 2 hours. Cells were washed with cold PBS and fixed with 2% paraformaldehyde in PBS. The subcellular localization of CCR6-EGFP protein was visualized using a Leica TCS-NT confocal fluorescence microscope with a 63× oil immersion lens (Wetzler, Heidelberg, Germany). The excitation and emission wavelengths were 488 and 515-540 nm, respectively.

CCR4 = molecular target: T2, CCR4 (Homo sapiens, UniProt P51679); assay: Internalization of CCR4-EGFP in transiently transfected HEK293 cells; assay type: cell-based; conditions: HEK293 cells transfected with pCCR4-EGFP; 37° C., 2 hours
T2 construct: The cDNA fragments covering the open reading frames for various chemokine receptors were obtained as follows; expressed in transfected cells; host or cells: HEK293 (transient, electroporation)
T2 sequence (P51679 1-360): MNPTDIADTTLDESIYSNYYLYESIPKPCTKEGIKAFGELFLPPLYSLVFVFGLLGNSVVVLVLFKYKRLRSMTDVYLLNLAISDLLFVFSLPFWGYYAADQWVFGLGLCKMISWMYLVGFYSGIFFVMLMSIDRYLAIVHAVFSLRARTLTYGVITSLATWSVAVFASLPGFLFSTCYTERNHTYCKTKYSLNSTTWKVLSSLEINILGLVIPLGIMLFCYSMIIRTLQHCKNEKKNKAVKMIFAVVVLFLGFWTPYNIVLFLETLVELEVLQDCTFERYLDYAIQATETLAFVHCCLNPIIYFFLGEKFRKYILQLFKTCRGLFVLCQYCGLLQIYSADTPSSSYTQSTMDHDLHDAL
Procedure: as §1, with “CCR4” for “CCR6”, “pCCR4-EGFP” for “pCCR6-EGFP”, “16 to 24” for “16-24”, “hours” for “hours of”, “TARC” for “MIP3α”, “CCR4-EGFP” for “CCR6-EGFP”

[1] = test system: OVA-sensitized murine asthma model; assay: OVA-sensitized murine asthma model; assay type: in vivo, C57BL/6 mice; conditions: for airway hyperreactivity: OVA-sensitized and challenged mice, i.p. pretreatment
Procedure: C57BL/6 mice (20-25 g) of either sex were sensitized by an i.p. injection (100 μl) of 20 μg chicken OVA (Sigma-Aldrich, St. Louis, Mo.) emulsified in Imject alum (2.25 mg Al(OH)3/2 mg Mg(OH)2) (Pierce, Rockfield, Ill.) on days 0 and 14. Mice were injected with 1, 10, or 100 μg of C27 or C19 i.p, and thirty minutes later, these mice were subsequently challenged with an aerosol generated from 1% OVA in saline (OVA), or saline alone, for 20 min by ultrasonic nebulization (DeVilbiss, Somerset, Pa.). This procedure was repeated daily on days 24, 25, and 26. The mice were assessed on day 28.

Row | Substance | internalization of CCR6-EGFP (CCR6) | internalization of CCR4-EGFP (CCR4) | airway hyperreactivity [1] | inhibition of the eosinophil infiltration into the BAL fluid ([1]; doses ranging from 1 to 100 μg/mouse i.p., vs positive control group) | inhibition of eosinophil recruitment into the airways (BAL fluid analysis) ([1]; 1 μg/mouse i.p., vs positive control group) [%] | inhibition of eosinophil recruitment into the airways (BAL fluid analysis) ([1]; 10 μg/mouse i.p., vs positive control group) [%] | inhibition of eosinophil recruitment into the airways (BAL fluid analysis) ([1]; 100 μg/mouse i.p., vs positive control group) [%]
1 | ALIYRKL LFNPSGPYQKKPVHEKKEVL (ALIYRKLLFNPSGPYQKKPVHEKKEVL; listed as Homo sapiens) [C27] | could induce internalization of CCR6-EGFP | could induce internalization of CCR4-EGFP | small, but not statistically significant, increase | did not demonstrate any inhibition | – | – | –
2 | FNPSGPYQKKPVHEKKEVL (listed as Homo sapiens) [C19] | could induce internalization of CCR6-EGFP | could induce internalization of CCR4-EGFP | significant decrease | – | 78 | 69 | 74
